Where two headings read alike, the source gives them in different places.
Experiments:
[1] = palm of hand; 0.4 g of ethanol per kilogram of body weight orally ingested; measured 10 to 40 minutes after drinking
[2] = compared with ethanol in exhaled breath, test subject ingested 0.4 g/kg of body weight of ethanol by drinking

time after drinking at which concentration of ethanol released from the skin reached a peak value [1]: 32 min
delay until the amount of ethanol contained in skin gas peaks ([2]; collector attached to back of hand): approximately 23 minutes
delay until the amount of ethanol contained in skin gas peaks ([2]; collector attached to wrist on the palm side): approximately 18 minutes
Compound: CCO [ethanol]

Reference: US20210361224A1, “BIOLOGICAL GAS (VOCs) MEASURMENT DEVICE” (National University Corporation Tokyo Medical and Dental …, priority 2017, published 2021)
